Literature values in patent publication US20110086399A1, “RECOVERY OF STILBENOIDS” (FLUXOME SCIENCES A/S, priority 2008, published 2011).

Settings: stated for comparison with the concentrations in the cell broth

- aqueous solubility: < 30 µg/mL
Structure (SMILES): Oc1cc(O)cc(/C=C/c2ccccc2)c1 [pinosylvin]
